Experimental data as given in ChEMBL document CHEMBL5233274, “Current Landscape and Future Perspective of Oxazolidinone Scaffolds Containing Antibacterial Drugs” (J Med Chem, 2021).
In brackets after ≈: the same amount, converted by molar mass.

Key:
Assay type in all cases: functional
Escherichia coli [1] = test: Antibacterial activity against Escherichia coli assessed as inhibition of bacterial growth incubated for 18 hrs by CLSI protocol based method
Pseudomonas aeruginosa [2] = test: Antibacterial activity against Pseudomonas aeruginosa assessed as inhibition of bacterial growth incubated for 18 hrs by CLSI protocol based method
Enterococcus faecalis [3] = test: Antibacterial activity against Enterococcus faecalis ATCC 51299 assessed as inhibition of bacterial growth by CLSI protocol based microdilution assay
Bacillus subtilis [4] = test: Antibacterial activity against Bacillus subtilis assessed as zone of inhibition at 100 ug/ml; settings: read-out: IZ
Listeria monocytogenes = test: Antibacterial activity against Listeria monocytogenes assessed as inhibition of bacterial growth by CLSI protocol based microdilution assay
Staphylococcus aureus [5] = test: Antibacterial activity against Staphylococcus aureus assessed as inhibition of bacterial growth by CLSI protocol based microdilution assay
Pseudomonas aeruginosa [6] = test: Antibacterial activity against Pseudomonas aeruginosa assessed as inhibition of bacterial growth by CLSI protocol based microdilution assay
Escherichia coli [7] = test: Antibacterial activity against Escherichia coli assessed as zone of inhibition at 100 ug/ml; settings: read-out: IZ
Enterococcus faecalis [8] = test: Antibacterial activity against Enterococcus faecalis ATCC 29212 assessed as inhibition of bacterial growth by CLSI protocol based microdilution assay
Streptococcus sp. [9] = test: Antibacterial activity against wild-type Streptococcus sp. by broth dilution assay
Enterococcus = test: Antibacterial activity against Enterococcus assessed as fold increase relative to linezolid
Streptococcus sp. [10] = test: Antibacterial activity against wild-type beta-hemolytic Streptococcus sp. by broth dilution assay
Staphylococcus aureus [11] = test: Antibacterial activity against methicillin-resistant Staphylococcus aureus WIS 441 infected in Galleria mellonella larvae incubated for 6 days; settings: time 6 day
Staphylococcus aureus [12] = test: Antibacterial activity against Staphylococcus aureus assessed as fold increase relative to linezolid
Streptococcus sp. [13] = test: Antibacterial activity against linezolid-resistant Streptococcus sp. by broth dilution assay
Klebsiella pneumoniae = test: Antibacterial activity against Klebsiella pneumoniae NCIM 5289 assessed as inhibition of bacterial growth incubated for 24 hrs by serial dilution method
Escherichia coli [14] = test: Antibacterial activity against Escherichia coli NCIM 2065 assessed as inhibition of bacterial growth incubated for 24 hrs by serial dilution method
Pseudomonas aeruginosa [15] = test: Antibacterial activity against Pseudomonas aeruginosa NCIM 5210 assessed as inhibition of bacterial growth incubated for 24 hrs by serial dilution method
Aspergillus niger = test: Antifungal activity against Aspergillus niger NCIM 1317 assessed as inhibition of fungal growth incubated for 48 hrs by serial dilution method
Enterococcus faecalis [16] = test: Antibacterial activity against Streptococcus faecalis NCIM 2080 assessed as inhibition of bacterial growth incubated for 24 hrs by serial dilution method
Bacillus subtilis [17] = test: Antibacterial activity against Bacillus subtilis NCIM 2097 assessed as inhibition of bacterial growth incubated for 24 hrs by serial broth dilution method
Candida albicans [18] = test: Antifungal activity against Candida albicans NCIM 3628 assessed as inhibition of fungal growth incubated for 48 hrs by serial dilution method
Staphylococcus aureus [19] = test: Antibacterial activity against Staphylococcus aureus NCIM 5257 assessed as inhibition of bacterial growth incubated for 24 hrs by serial broth dilution method
Candida albicans [20] = test: Antifungal activity against Candida albicans assessed as inhibition of fungal growth incubated measured per 100 uL incubated for 24 hrs by agar well diffusion method
Staphylococcus aureus [21] = test: Antibacterial activity against Staphylococcus aureus assessed as inhibition of bacterial growth measured per 100 uL incubated for 24 hrs by agar well diffusion method
Escherichia coli [22] = test: Antibacterial activity against Escherichia coli assessed as inhibition of bacterial growth measured per 100 uL incubated for 24 hrs by agar well diffusion method
Saccharomyces cerevisiae = test: Antifungal activity against Saccharomyces cerevisiae assessed as inhibition of fungal growth incubated measured per 100 uL incubated for 24 hrs by agar well diffusion method
Pseudomonas aeruginosa [23] = test: Antibacterial activity against Pseudomonas aeruginosa assessed as inhibition of bacterial growth measured per 100 uL incubated for 24 hrs by agar well diffusion method
Bacillus subtilis [24] = test: Antibacterial activity against Bacillus subtilis assessed as inhibition of bacterial growth measured per 100 uL incubated for 24 hrs by agar well diffusion method

O=C(NO)[C@@H]1CN(c2ccc(C#CC#CC3CC3)cc2)C(=O)O1
MIC (Escherichia coli [1]): 0.03 µg/mL (≈ 0.0967 µM) | MIC (Pseudomonas aeruginosa [2]): > 10 µg/mL

O=C(N[C@H](CO)[C@H](O)c1ccc([N+](=O)[O-])cc1)C(Cl)Cl [CHLORAMPHENICOL]
MIC (Enterococcus faecalis [3]): 50 µg/mL (≈ 155 µM) | zone of inhibition at 100 µg/mL (Bacillus subtilis [4]): 37 mm | MIC (Listeria monocytogenes): 50 µg/mL (≈ 155 µM) | MIC (Staphylococcus aureus [5]): 50 µg/mL (≈ 155 µM) | MIC (Pseudomonas aeruginosa [6]): 50 µg/mL (≈ 155 µM) | zone of inhibition at 100 µg/mL (Escherichia coli [7]): 38 mm | MIC (Enterococcus faecalis [8]): 50 µg/mL (≈ 155 µM)

CS(=O)(=O)CCOc1ccc(C#Cc2ccc(N3C[C@@H](C(=O)NO)OC3=O)cc2)cc1
MIC (Escherichia coli [1]): 50 µg/mL (≈ 112 µM) | MIC (Pseudomonas aeruginosa [2]): > 10 µg/mL

Cn1nnc(-c2ccc(-c3ccc(N4C[C@H](CO)OC4=O)cc3F)cn2)n1 [TEDIZOLID]
MIC90 (Streptococcus sp. [9]): 0.25 µg/mL (≈ 0.675 µM) | fold change (FC) (Enterococcus): 4 | MIC90 (Streptococcus sp. [10]): 0.25 µg/mL (≈ 0.675 µM) | MED (Staphylococcus aureus [11]): 2 mg/L | fold change (FC) (Staphylococcus aureus [12]): 4 | MIC90 (Streptococcus sp. [13]): 8 µg/mL (≈ 21.6 µM)

O=C(/C=C/c1ccc(F)cc1)c1ccc(-c2ccc(N3C[C@H](CO)OC3=O)cc2)cc1
MIC (Klebsiella pneumoniae): 3.12 µg/mL (≈ 7.49 µM) | MIC (Escherichia coli [14]): 3.12 µg/mL (≈ 7.49 µM) | MIC (Pseudomonas aeruginosa [15]): 3.12 µg/mL (≈ 7.49 µM) | MIC (Aspergillus niger): 12.5 µg/mL (≈ 29.9 µM) | MIC (Enterococcus faecalis [16]): 3.12 µg/mL (≈ 7.49 µM) | MIC (Bacillus subtilis [17]): 3.12 µg/mL (≈ 7.49 µM) | MIC (Candida albicans [18]): 12.5 µg/mL (≈ 29.9 µM) | MIC (Staphylococcus aureus [19]): 3.12 µg/mL (≈ 7.49 µM)

O=C(NO)[C@@H]1CN(c2ccc(C#Cc3ccccc3)cc2)C(=O)O1
MIC (Escherichia coli [1]): 0.625 µg/mL (≈ 1.94 µM) | MIC (Pseudomonas aeruginosa [2]): > 10 µg/mL

O=C(NO)[C@@H]1CN(c2ccc(C#CC#CC3CCCC3)cc2)C(=O)O1
MIC (Escherichia coli [1]): 0.015 µg/mL (≈ 0.0443 µM) | MIC (Pseudomonas aeruginosa [2]): > 10 µg/mL

O=C(NO)[C@@H]1CN(c2ccc(-c3ccccc3)cc2)C(=O)O1
MIC (Escherichia coli [1]): 50 µg/mL (≈ 168 µM) | MIC (Pseudomonas aeruginosa [2]): > 10 µg/mL

O=C1N[C@@H](Cc2ccc(NC(=S)Nc3ccc(Br)cc3)cc2)CO1
MIC (Enterococcus faecalis [3]): 25 µg/mL (≈ 61.5 µM) | MIC (Listeria monocytogenes): 25 µg/mL (≈ 61.5 µM) | MIC (Staphylococcus aureus [5]): 25 µg/mL (≈ 61.5 µM) | MIC (Enterococcus faecalis [8]): 25 µg/mL (≈ 61.5 µM)

COc1ccc(NC(=S)Nc2ccc(C[C@H]3COC(=O)N3)cc2)cc1
MIC (Pseudomonas aeruginosa [6]): 50 µg/mL (≈ 140 µM)

O=C(/C=C/c1cccc(F)c1)c1ccc(-c2ccc(N3C[C@H](CO)OC3=O)cc2)cc1
MIC (Klebsiella pneumoniae): 3.12 µg/mL (≈ 7.49 µM) | MIC (Escherichia coli [14]): 3.12 µg/mL (≈ 7.49 µM) | MIC (Pseudomonas aeruginosa [15]): 3.12 µg/mL (≈ 7.49 µM) | MIC (Aspergillus niger): 12.5 µg/mL (≈ 29.9 µM) | MIC (Enterococcus faecalis [16]): 3.12 µg/mL (≈ 7.49 µM) | MIC (Bacillus subtilis [17]): 3.12 µg/mL (≈ 7.49 µM) | MIC (Candida albicans [18]): 12.5 µg/mL (≈ 29.9 µM) | MIC (Staphylococcus aureus [19]): 3.12 µg/mL (≈ 7.49 µM)

O=C1NC(Cc2ccc(Nc3nc(-c4ccc(F)cc4)cs3)cc2)CO1 (configuration not stated)
MIC (Candida albicans [20]): 12.5 µg | MIC (Staphylococcus aureus [21]): 12.5 µg | MIC (Escherichia coli [22]): 12.5 µg | MIC (Saccharomyces cerevisiae): 12.5 µg | MIC (Pseudomonas aeruginosa [23]): 12.5 µg | MIC (Bacillus subtilis [24]): 12.5 µg

O=C(NO)[C@@H]1CN(c2ccc(C#CC#Cc3ccccc3)cc2)C(=O)O1
MIC (Escherichia coli [1]): 0.12 µg/mL (≈ 0.346 µM) | MIC (Pseudomonas aeruginosa [2]): > 10 µg/mL
